The values that follow come from US7378415B2, “Benzoxazine and quinoxaline derivatives and uses thereof” (Roche Palo Alto LLC, priority 2004, dated 2008).

Structures can show the parent of a compound that is named as a salt.

The target in one series is T1, recombinant human 5-HT2A receptor (Homo sapiens, UniProt P28223).
T1 construct: expressed in transfected cells
T1 sequence (P28223 whole entry): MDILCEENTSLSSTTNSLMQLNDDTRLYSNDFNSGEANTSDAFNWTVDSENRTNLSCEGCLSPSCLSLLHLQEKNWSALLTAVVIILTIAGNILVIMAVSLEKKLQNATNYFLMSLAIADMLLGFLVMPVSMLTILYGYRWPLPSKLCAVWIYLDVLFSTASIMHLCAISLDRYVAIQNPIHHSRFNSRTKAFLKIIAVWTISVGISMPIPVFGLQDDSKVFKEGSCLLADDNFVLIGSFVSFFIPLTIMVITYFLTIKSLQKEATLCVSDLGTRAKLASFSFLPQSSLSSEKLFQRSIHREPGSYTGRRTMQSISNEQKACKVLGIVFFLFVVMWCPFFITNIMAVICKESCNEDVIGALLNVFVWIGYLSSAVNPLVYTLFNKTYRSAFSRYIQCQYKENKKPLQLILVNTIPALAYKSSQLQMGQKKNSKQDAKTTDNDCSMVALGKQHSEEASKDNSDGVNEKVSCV
The experiment in a line: Radioligand binding, [3H]Ketanserin competition in CHO-K1 cell membranes. Particulars: [3H]Ketanserin displacement, pH 7.4, 32° C., read-out: pKi for the 5-HT2A receptor (converted). How it is done:
(§1) The binding activity of compounds of this invention in vitro was determined as follows. Duplicate determinations of 5-HT6 ligand affinity were made by competing for binding of [^3H]LSD in cell membranes derived from HEK293 cells stably expressing recombinant human 5-HT6 receptor. Duplicate determinations of 5-HT2A ligand affinity were made by competing for binding of [^3H]Ketanserin (3-(2-(4-(4-fluorobenzoyl)piperidinol)ethyl)-2,4(1H,3H)-quinazolinedione) in cell membranes derived from CHO-K1 cells stably expressing recombinant human 5-HT2A receptor.
(§2) Assay tubes containing [^3H] LSD or [^3H]Ketanserin (5 nM), competing ligand, and membrane were incubated in a shaking water bath for 75 min. at 37° C. (for 5-HT6) or 60 min. at 32° C. (for 5-HT2A), filtered onto Packard GF-B plates (pre-soaked with 0.3% PEI) using a Packard 96 well cell harvester and washed 3 times in ice cold 50 mM Tris-HCl. Bound [^3H] LSD or [^3H]Ketanserin were determined as radioactive counts per minute using Packard TopCount.
(§3) Displacement of [^3H]LSD or [^3H]Ketanserin from the binding sites was quantified by fitting concentration-binding data to a 4-parameter logistic equation:
(§4) [formula] where Hill is the Hill slope, [ligand] is the concentration of competing radioligand and IC50 is the concentration of radioligand producing half-maximal specific binding of radioligand. […]
For the molecule `O=S(=O)(c1ccccc1)c1ccc2c(c1)OCCN2C1CCNCC1` [Compound 22, 7-Benzenesulfonyl-4-piperidin-4-yl-3,4-dihydro-2H-benzo[1,4]oxazine], the Ki was roughly 8.13 nM.

For another series, the target named is T2, recombinant human 5-HT6 receptor (Homo sapiens, UniProt P50406).
T2 construct: expressed in transfected cells
T2 sequence (P50406 whole entry): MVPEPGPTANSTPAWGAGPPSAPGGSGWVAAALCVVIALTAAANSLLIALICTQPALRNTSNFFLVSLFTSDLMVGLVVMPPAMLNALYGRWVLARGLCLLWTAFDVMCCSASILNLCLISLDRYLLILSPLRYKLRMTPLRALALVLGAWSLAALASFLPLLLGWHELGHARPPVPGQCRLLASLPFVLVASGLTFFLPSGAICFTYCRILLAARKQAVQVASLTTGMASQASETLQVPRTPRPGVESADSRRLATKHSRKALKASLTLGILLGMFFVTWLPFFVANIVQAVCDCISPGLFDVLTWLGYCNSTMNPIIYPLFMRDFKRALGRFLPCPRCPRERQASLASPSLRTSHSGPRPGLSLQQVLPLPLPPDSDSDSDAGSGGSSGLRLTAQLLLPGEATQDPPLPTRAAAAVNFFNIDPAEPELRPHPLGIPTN
Nature of the series: Radioligand binding, [3H]LSD competition in HEK293 cell membranes. Particulars: [3H]LSD displacement, pH 7.4, 37° C., read-out: pKi for the 5-HT6 receptor (converted). How it is done: as §1, §2, §3, §4
As to `O=S(=O)(c1ccccc1)c1ccc2c(c1)OCCN2C1CCNCC1` [Compound 22, 7-Benzenesulfonyl-4-piperidin-4-yl-3,4-dihydro-2H-benzo[1,4]oxazine], the Ki is roughly 0.105 nM.

Test system in the next series: not given
Assay: not given
Settings: not given
The melting point is the temperature of the solid-liquid transition. On to `N=C(N)NC(=O)N1CCOc2cc(S(=O)(=O)c3ccccc3)ccc21`, for which the melting point is 61.2 to 67.3 °C.

`CN(C)CCN1C(=O)COc2cc(S(=O)(=O)c3ccccc3)ccc21` (as salt: HCl) yielded a melting point of 232.9 to 235.3 °C.

`O=C(CC1=NCCN1)N1CCOc2cc(S(=O)(=O)c3ccccc3)ccc21` (as salt: HCl): the melting point fell in the range of 202.3 to 203.6 °C.

Molecule `O=C(C1CNC1)N1CCOc2cc(S(=O)(=O)c3ccccc3)ccc21` (as salt: hydrochloride) gave a melting point of 182 to 186.6 °C.

Molecule `CN(C)CCCCN1C(=O)COc2cc(S(=O)(=O)c3ccccc3)ccc21` (as salt: HCl) displayed a melting point of 179 to 180 °C.

`CN(C)CC(=O)N1CCOc2ccc(S(=O)(=O)c3ccccc3)cc21` (as salt: hydrochloride) gave a melting point of 199 to 203 °C.

With `O=S(=O)(c1ccccc1)c1ccc2c(c1)OCCN2CCn1ccnc1`, the melting point fell in the range of 61.5 to 64.4 °C.

With `CC1(C)CN(C2CCNCC2)c2ccc(S(=O)(=O)c3ccccc3)cc2O1` (as salt: hydrochloride), the melting point was 284.9 to 296.3 °C.

Consider `CN(C)CCCN1C(=O)COc2cc(S(=O)(=O)c3ccccc3)ccc21` (as salt: HCl), for which the melting point is 194 to 196.4 °C.

Molecule `O=C1COc2cc(S(=O)(=O)c3ccccc3)ccc2N1CC1=NCCN1` (as salt: HCl) had a melting point of 113.7 to 116 °C.

In turn, `O=S(=O)(c1ccccc1)c1ccc2c(c1)N(CC1=NCCN1)CCO2` (as salt: HCl) yielded a melting point of 114 to 116.1 °C.

Molecule `NCCNC(=O)N1CCOc2cc(S(=O)(=O)c3ccccc3)ccc21` (as salt: hydrochloride) registered a melting point of 220.9 to 221.3 °C.

For the molecule `CC1(C)CN(c2ccncc2)c2ccc(S(=O)(=O)c3ccccc3)cc2O1` (as salt: hydrochloride), the melting point lay within 112.7 to 120.4 °C.

For `NCCN1CCOc2ccc(S(=O)(=O)c3ccccc3)cc21` (as salt: HCl), the melting point lay in the range of 242.9 to 245.9 °C.

In the case of `O=C(C1CCCNC1)N1CCOc2cc(S(=O)(=O)c3ccccc3)ccc21` (centres unmarked) (as salt: hydrochloride), the melting point lay within 130.5 to 136.7 °C.

Take `NCCNC(=O)N1CCOc2ccc(S(=O)(=O)c3ccccc3)cc21`: the melting point lay in the range of 172.4 to 181.3 °C.

`O=C1COc2ccc(S(=O)(=O)c3ccccc3)cc2N1CC1=NCCN1` (as salt: HCl) came in with a melting point of 250 to 252 °C.

`O=S(=O)(c1ccccc1)c1ccc2c(c1)OCCN2C1CCNC1` (centres unmarked) (as salt: hydrochloride) registered a melting point of 122.8 to 127.6 °C.

Molecule `CNCCC(=O)N1CCOc2ccc(S(=O)(=O)c3ccccc3)cc21` (as salt: hydrochloride) had a melting point of 208.3 to 214.7 °C.

For `CNCCCN1CCOc2cc(S(=O)(=O)c3ccccc3)ccc21` (as salt: hydrochloride), the melting point lay within 188.3 to 193.2 °C.

`NCCN1CCOc2cc(S(=O)(=O)c3ccccc3)ccc21` (as salt: HCl): the melting point was in the range of 261 to 265.1 °C.

With `N=C(N)NC(=O)N1CCOc2cc(S(=O)(=O)c3ccccc3)ccc21` (as salt: hydrochloride), the melting point lay within 148.5 to 151.6 °C.

The molecule `NCCN1C(=O)COc2cc(S(=O)(=O)c3ccccc3)ccc21` (as salt: hydrochloride) returned a melting point of 206.9 to 209.1 °C.

With `O=C(C1CCNC1)N1CCOc2cc(S(=O)(=O)c3ccccc3)ccc21` (centres unmarked) (as salt: hydrochloride), the melting point was 109.2 to 110.5 °C.

The molecule `O=C(CC1=NCCN1)N1CCOc2ccc(S(=O)(=O)c3ccccc3)cc21` gave a melting point of 114 to 116.1 °C.

`O=C(CC1=NCCN1)N1CCOc2cc(S(=O)(=O)c3ccccc3)ccc21` gave a melting point of 44 to 47 °C.

On to `CNCC(=O)N1CCOc2ccc(S(=O)(=O)c3ccccc3)cc21` (as salt: hydrochloride), for which the melting point was in the range of 233 to 235.5 °C.
